Columns and labels:
m17β-HSD2 = molecular target: T1, m17β-HSD2 (Mus musculus, UniProt P51658); assay: Inhibition of m17β-HSD2 in cell-free assay; format: biochemical
T1 construct: The microsomal fraction (m17β-HSD2) was obtained from mouse liver as described for h17β-HSD2; tissue Pharmacelsus GmbH (mouse livers); host or cells: mouse liver, microsomal fraction
T1 sequence (P51658 1-381): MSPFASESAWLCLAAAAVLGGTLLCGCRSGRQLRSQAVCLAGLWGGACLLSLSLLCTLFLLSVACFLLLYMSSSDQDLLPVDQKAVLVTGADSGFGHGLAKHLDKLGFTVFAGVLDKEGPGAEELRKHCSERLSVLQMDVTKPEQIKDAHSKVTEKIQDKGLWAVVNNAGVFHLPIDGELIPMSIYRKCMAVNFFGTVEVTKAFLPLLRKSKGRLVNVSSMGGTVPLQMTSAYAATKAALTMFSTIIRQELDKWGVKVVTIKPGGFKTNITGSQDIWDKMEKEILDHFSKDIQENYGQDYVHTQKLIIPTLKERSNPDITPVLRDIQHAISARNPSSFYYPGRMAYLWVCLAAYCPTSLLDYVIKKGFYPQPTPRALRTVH
Method in brief: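 Mouse liver microsomal enzyme incubated with tritiated substrate, NAD+ [1500 μM] and inhibitor at 37 °C in 50 mM phosphate buffer with 20% glycerol, 1 mM EDTA, 1% DMSO final. Stopped after 20 min with HgCl2, steroids ether-extracted and quantified by HPLC radioflow detection; at least two independent experiments.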

ERβ = ERβ (Homo sapiens, UniProt Q92731); assay: Estrogen receptor affinity in a cell-free assay (ERβ); format: binding; conditions: 1000-fold excess relative to E2; recombinant human ERβ
Chain of ERβ (Q92731 whole entry): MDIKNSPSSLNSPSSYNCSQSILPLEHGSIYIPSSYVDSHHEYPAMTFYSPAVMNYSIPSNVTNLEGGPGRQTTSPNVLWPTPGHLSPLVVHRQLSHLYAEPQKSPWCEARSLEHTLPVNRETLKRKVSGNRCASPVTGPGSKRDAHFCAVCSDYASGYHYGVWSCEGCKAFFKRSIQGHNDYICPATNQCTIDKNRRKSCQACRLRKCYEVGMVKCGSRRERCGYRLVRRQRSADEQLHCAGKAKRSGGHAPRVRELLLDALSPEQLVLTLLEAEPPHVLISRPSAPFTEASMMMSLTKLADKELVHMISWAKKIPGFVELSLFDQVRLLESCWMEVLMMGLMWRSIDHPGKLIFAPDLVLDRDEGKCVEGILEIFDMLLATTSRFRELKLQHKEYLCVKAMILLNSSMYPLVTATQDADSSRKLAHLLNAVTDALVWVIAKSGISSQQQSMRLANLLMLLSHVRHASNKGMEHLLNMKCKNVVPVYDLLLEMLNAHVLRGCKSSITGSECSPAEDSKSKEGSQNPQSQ
Experimental: The binding affinity of selected compounds to ERα and ERβ was determined according to the recommendations of the US Environmental Protection Agency (EPA) by their Endocrine Disruptor Screening Program (EDSP)[24] using recombinant human proteins.
The potential inhibitors were dissolved in DMSO (5% final concentration). […] After incubation, ligand-receptor complexes were selectively bound to hydroxyapatite (83.5 g/LinTE-buffer). The bound complex was washed three times and resuspended in ethanol. For radiodetection, scintillator cocktail (Quickszint 212, Zinsser Analytic, Frankfurt) was added and samples were measured in a liquid scintillation counter (1450 LSC & Luminescence Counter, Perkin Elmer).
After the assay was established and validated, a modification was made to increase throughput.

h17β-HSD2 [1] = molecular target: T2, h17β-HSD2 (Homo sapiens, UniProt P37059); assay: Inhibition of h17β-HSD2 in cell-free assay; format: biochemical; set-up: from tissue; host or cells: human placenta, microsomal fraction; conditions: for s.f. (selectivity factor) = IC50(17β-HSD1)/IC50(17β-HSD2): human enzymes, cell-free
T2 sequence (P37059 1-387): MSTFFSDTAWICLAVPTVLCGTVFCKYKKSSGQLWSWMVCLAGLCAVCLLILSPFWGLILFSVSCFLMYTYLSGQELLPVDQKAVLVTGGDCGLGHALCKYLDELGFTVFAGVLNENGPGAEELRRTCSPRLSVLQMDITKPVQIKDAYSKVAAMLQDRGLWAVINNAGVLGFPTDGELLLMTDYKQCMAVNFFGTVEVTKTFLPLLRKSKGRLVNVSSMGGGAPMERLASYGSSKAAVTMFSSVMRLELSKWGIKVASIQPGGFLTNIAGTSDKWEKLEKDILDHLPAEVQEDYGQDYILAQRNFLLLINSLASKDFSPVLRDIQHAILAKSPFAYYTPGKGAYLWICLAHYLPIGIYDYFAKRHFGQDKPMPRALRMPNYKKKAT

[2] = Metabolic stability in a cell-free assay (liver S9 fraction); format: in vitro ADME; conditions: human liver S9 fraction 1 mg/ml, NADPH regenerating system, UDPGA, PAPS, 37°C, inhibitor 1 μM; for half-life at 1 μM: pooled liver S9 fraction, read-out: Inhibitor t1/2
Experimental: Compounds 7a, 8a, 16a, 19a, 22a, 27a and 27 were tested according to established method[33–35]For evaluation of phase I and II metabolic stability 1 μM compound was incubated with 1 mg/ml pooled mammalian liver S9 fraction (BD Gentest), 2 mM NADPH regenerating system, 1 mM UDPGA and 0.1 mM PAPS at 37°C for 0, 5, 15 and 60 minutes at a final volume of 100 μL. The incubation was stopped by precipitation of S9 enzymes with 2 volumes of cold acetonitrile containing internal standard. Concentration of the remaining test compound at the different time points was analyzed by LC-MS/MS and used to determine half-life (t1/2).

h17β-HSD2 [3] = molecular target: T2, h17β-HSD2; assay: Inhibition of h17β-HSD2 in a cellular assay (MDA-MB-231); format: cell-based; conditions: MDA-MB-231 cell line, substrate E2 [200 nM], 6 h; for inhibition at 0.25 µM: MDA-MB-231, 250 nM, read-out: % inh HSD2 at 250 nM; for inhibition at 1.25 µM: MDA-MB-231, 1250 nM, read-out: % inh HSD2 at 1250 nM
Experimental: Cellular h17β-HSD2 inhibitory activity is measured using the breast cancer cell-line MDA-MB-231[32] (17β-HSD1 activity negligible). [^3H]-E2 (200 nM) is taken as substrate and is incubated with the inhibitor for 6 h at 37°C. After ether extraction, substrate and product are separated by HPLC and detected with a radioflow detector. Potency is evaluated as percentage of inhibition (inhibitor concentrations used: 1250 nM and 250 nM).

SMILES: COc1cccc(N(C)C(=O)c2ccc(-c3cccc(C)c3)cc2)c1 [Compound 6a, N-(3-methoxyphenyl)-N,3'-dimethyl-[1,1'-biphenyl]-4-carboxamide]
- IC50 (m17β-HSD2): 260 nM
- displacement of E2 from ERβ (ERβ): ≤ 20%
- IC50 (h17β-HSD2 [1]): 260 nM
- s.f. (selectivity factor) = IC50(17β-HSD1)/IC50(17β-HSD2) (h17β-HSD2 [1]): 25
- half-life at 1 μM [2]: 1.77 h
- inhibition at 0.25 µM (h17β-HSD2 [3]): 60%
- inhibition at 1.25 µM (h17β-HSD2 [3]): ~90%

SMILES: Cc1cccc(-c2ccc(C(=O)N(C)Cc3cccc(O)c3)cc2)c1F [Compound 25, 2'-Fluoro-N-(3-hydroxybenzyl)-N,3'-dimethyl-[1,1'-biphenyl]-4-carboxamide]
- melting point: 123 to 126 °C
- IC50 (m17β-HSD2): 190 nM
- displacement of E2 from ERβ (ERβ): ≤ 20%
- IC50 (h17β-HSD2 [1]): 260 nM
- s.f. (selectivity factor) = IC50(17β-HSD1)/IC50(17β-HSD2) (h17β-HSD2 [1]): 118
- Inhibitor t1/2 [2]: short half-life
- half-life at 1 μM [2]: 0.1 h
- inhibition at 0.25 µM (h17β-HSD2 [3]): 67%
- inhibition at 1.25 µM (h17β-HSD2 [3]): ~90%

SMILES: Cc1cccc(N(C)C(=O)c2ccc(-c3cccc(C)c3F)cc2)c1 [Compound 21a, 2'-Fluoro-N,3'-dimethyl-N-(m-tolyl)-[1,1'-biphenyl]-4-carboxamide]
- melting point: 73 to 76 °C
- inhibition at 1 µM (m17β-HSD2; read-out: % inh. at 1 μM m17β-HSD2): 56%
- displacement of E2 from ERβ (ERβ): ≤ 20%
- IC50 (h17β-HSD2 [1]): 330 nM
- s.f. (selectivity factor) = IC50(17β-HSD1)/IC50(17β-HSD2) (h17β-HSD2 [1]): 11

SMILES: COc1cccc(N(C)C(=O)c2ccc(-c3ccc(C)c(C)c3)cc2)c1 [Compound 17a, N-(3-methoxyphenyl)-N,3',4'-trimethyl-[1,1'-biphenyl]-4-carboxamide]
- IC50 (m17β-HSD2): 140 nM
- displacement of E2 from ERβ (ERβ): ≤ 20%
- IC50 (h17β-HSD2 [1]): 300 nM
- s.f. (selectivity factor) = IC50(17β-HSD1)/IC50(17β-HSD2) (h17β-HSD2 [1]): 44
- half-life at 1 μM [2]: 1.78 h
- inhibition at 0.25 µM (h17β-HSD2 [3]): 66%
- inhibition at 1.25 µM (h17β-HSD2 [3]): ~90%

Reference: publication PMC4521925, “17β-Hydroxysteroid Dehydrogenase Type 2 Inhibition: Discovery of Selective and Metabolically Stable Compounds Inhibiting Both the Human Enzyme and Its Murine Ortholog” (PLoS ONE, 2015)
